6 molecules from patent US4129737A, “Process for the preparation of an 8-alkyl-5-oxo-5,8-dihydro-pyrido(2,3-d)pyrimidine-6-carboxylic acid” (priority 1972, dated 1978) can be followed below.

Values after ≈ are worked out from the molar mass of the structure shown. Read-outs that look alike come from different tables or passages of the source. Some results are limits rather than exact numbers.

Holding throughout (assay type): cell-based
The subject of one test is B. subtilis. The test is described as follows: Minimum inhibitory concentration by agar dilution, B. subtilis. The following applies: Bacillus subtilis. The procedure: (§1) (a) Trypticase soya medium (T.S.A.), which is very suitable for culturing the majority of microorganisms; it has the following composition:
(§2) (b) Ordinarily nutrient agar (N.A.), which is less rich in nutrients, corresponds to the following formulation: […]
(§3) Table I gives the minimum inhibitory concentrations (expressed in μg/cm^3) for the various microorganisms tested on each medium.
(§4) The products were tested on three Gram positive microorganisms (1 to 3) […] and on 10 Gram negative microorganisms (4 to 13).
(§5) Table (II) gives the minimum inhibitory concentrations of the compounds of Examples XII to XVI, determined on the agar medium, N.A., and expressed in μg/cm^3.

The subject of another test is Pr. vulgaris. As to the kind of experiment: Minimum inhibitory concentration by agar dilution, Pr. vulgaris. The following applies: Proteus vulgaris. The protocol: as §1, §2, §3, §4, §5
In another test the test system is Pr. morganii. The test is described as follows: Minimum inhibitory concentration by agar dilution, Pr. morganii. The note with it: Morganella morganii. The procedure: as §1, §2, §3, §4, §5
Another test has as its system Streptococcus. The test is described as follows: Minimum inhibitory concentration by agar dilution, Streptococcus Group A. The protocol: as §1, §2, §3, §4, §5
A further test relates to Bord. bronchiseptica. As to the kind of experiment: Minimum inhibitory concentration by agar dilution, Bord. bronchiseptica. The following applies: Bordetella bronchiseptica. The protocol:
as §1, §2, §3, §4, §5

The test system of the next test is Salm. typhi. As to the kind of experiment: Minimum inhibitory concentration by agar dilution, Salm. typhi. The following applies: Salmonella enterica, 18 h. The protocol: as §1, §2, §3, §4, §5
A further test deals with Klebs. pneumoniae. The test is described as follows: Minimum inhibitory concentration by agar dilution, Klebs. pneumoniae. The note with it: Klebsiella pneumoniae. The procedure: as §1, §2, §3, §4, §5
The test system of another test is Staphylococcus 209 P. As to the kind of experiment: Minimum inhibitory concentration by agar dilution, Staphylococcus 209 P. The procedure: as §1, §2, §3, §4, §5
Another test concerns Pr. mirabilis. As to the kind of experiment: Minimum inhibitory concentration by agar dilution, Pr. mirabilis. The note with it: Proteus mirabilis. The procedure:
as §1, §2, §3, §4, §5

The next test deals with B. pyocyaneus A22. As to the kind of experiment: Minimum inhibitory concentration by agar dilution, B. pyocyaneus A22. The following applies: Pseudomonas aeruginosa. The procedure:
as §1, §2, §3, §4, §5

In another test the test system is Esch. Coli 95. As to the kind of experiment: Minimum inhibitory concentration by agar dilution, Esch. Coli 95. The following applies: Escherichia coli. The protocol: as §1, §2, §3, §4, §5
The next test concerns Sh. sonnei. The test is described as follows: Minimum inhibitory concentration by agar dilution, Sh. sonnei. The following applies: Shigella sonnei. The protocol: as §1, §2, §3, §4, §5
The next test concerns B. pyocyaneus TUR. The test is described as follows: Minimum inhibitory concentration by agar dilution, B. pyocyaneus TUR. The following applies: Pseudomonas aeruginosa, 37° C., 18 hours. The procedure: as §1, §2, §3, §4
Setting [1] is: 18 h, agar medium, N.A., Table II, read-out: minimum inhibitory concentration.
Where [2] appears, read: read-out: minimum inhibitory concentration.
Where [3] appears, read: 18 h, agar medium, N.A., Table II (Staphylococcus 20 P [sic]), read-out: minimum inhibitory concentration.
[4] abbreviates: A22, 18 h, agar medium, N.A., Table II, read-out: minimum inhibitory concentration.
Where [5] appears, read: 18 h, read-out: minimum inhibitory concentration.
Setting [6] is: 18 h, pH 6.8, read-out: minimum inhibitory concentration (M.I.C.).
The mark [7] stands for this setting: T.S.A. (trypticase soya medium, pH 7.3), 37° C., 18 hours, read-out: minimum inhibitory concentration (M.I.C.).
Setting [8] is: N.A. (nutrient agar, pH 6.8), 37° C., 18 hours, Table I, read-out: minimum inhibitory concentration (M.I.C.).

With `CCN1CCN(c2ncc3c(=O)c(C(=O)O)cn(CC)c3n2)CC1` [Example XII, 2-(4'-Ethyl-piperazino)-5-oxo-8-ethyl-5,8-dihydro-pyrido(2,3-d)pyrimidine-6-carboxylic acid], the MIC in the test with B. subtilis (setting [1]) was found to be 100 µg/mL (≈ 302 µM); in the test on Pr. vulgaris (setting [1]), 0.8 µg/mL (≈ 2.41 µM); with Pr. morganii (setting [1]), 0.8 µg/mL (≈ 2.41 µM); in the test with Streptococcus (setting [1]) it was 3.1 µg/mL (≈ 9.35 µM); in the test on Bord. bronchiseptica (setting [1]) it was 100 µg/mL (≈ 302 µM); in the test on Salm. typhi (setting [2]), 0.8 µg/mL (≈ 2.41 µM). In addition, the MIC in the test on Klebs. pneumoniae (setting [1]) is 0.4 µg/mL (≈ 1.21 µM); with Staphylococcus 209 P (setting [3]), 1.6 µg/mL (≈ 4.83 µM); in the test with Pr. mirabilis (setting [1]), 6.2 µg/mL (≈ 18.7 µM); with B. pyocyaneus A22 (setting [4]) it was 100 µg/mL (≈ 302 µM); in the test with Esch. Coli 95 (setting [1]) it was 0.8 µg/mL (≈ 2.41 µM); with Sh. sonnei (setting [1]), 0.8 µg/mL (≈ 2.41 µM).

As to `CCn1cc(C(=O)O)c(=O)c2cnc(N3CCN(Cc4ccc(OC)cc4)CC3)nc21` [XVI, 2-(4'-p-Methoxybenzyl-piperazino)-5-oxo-8-ethyl-5,8-dihydro-pyrido(2,3-d)pyrimidine-6-carboxylic acid], the MIC was 50 µg/mL (≈ 118 µM) with B. subtilis (setting [1]); 6.2 µg/mL (≈ 14.6 µM) with Pr. vulgaris (setting [1]); 1.6 µg/mL (≈ 3.78 µM) in the test with Pr. morganii (setting [1]); 0.8 µg/mL (≈ 1.89 µM) with Streptococcus (setting [1]); 12.5 µg/mL (≈ 29.5 µM) in the test on Bord. bronchiseptica (setting [1]); 1.6 µg/mL (≈ 3.78 µM) with Salm. typhi (setting [2]). Further, the MIC in the test on Klebs. pneumoniae (setting [1]) is 0.2 µg/mL (≈ 0.472 µM); in the test on Staphylococcus 209 P (setting [3]), 0.4 µg/mL (≈ 0.945 µM); in the test with Pr. mirabilis (setting [1]) it was 12.5 µg/mL (≈ 29.5 µM); in the test with B. pyocyaneus A22 (setting [4]), 12.5 µg/mL (≈ 29.5 µM); with Esch. Coli 95 (setting [1]), 3.1 µg/mL (≈ 7.32 µM); in the test with Sh. sonnei (setting [1]), 0.8 µg/mL (≈ 1.89 µM).

Consider `CCCN1CCN(c2ncc3c(=O)c(C(=O)O)cn(CC)c3n2)CC1` [XIII, 2-(4'-Propyl-piperazino)-5-oxo-8-ethyl-5,8-dihydro-pyrido(2,3-d)pyrimidine-6-carboxylic acid], for which the MIC stood at 3.1 µg/mL (≈ 8.98 µM) with B. subtilis (setting [1]); 6.2 µg/mL (≈ 18 µM) in the test on Pr. vulgaris (setting [1]); 6.2 µg/mL (≈ 18 µM) with Pr. morganii (setting [1]); 6.2 µg/mL (≈ 18 µM) with Streptococcus (setting [1]); 12.5 µg/mL (≈ 36.2 µM) in the test with Bord. bronchiseptica (setting [5]); 12.5 µg/mL (≈ 36.2 µM) in the test with Salm. typhi (setting [2]). The MIC in the test with Klebs. pneumoniae (setting [1]) was 1.6 µg/mL (≈ 4.63 µM); with Staphylococcus 209 P (setting [3]), 6.2 µg/mL (≈ 18 µM); in the test on Pr. mirabilis (setting [5]), 12.5 µg/mL (≈ 36.2 µM); in the test with B. pyocyaneus A22 (setting [4]) it was 100 µg/mL (≈ 290 µM); in the test on Esch. Coli 95 (setting [1]) it was 50 µg/mL (≈ 145 µM); in the test on Sh. sonnei (setting [1]), 1.6 µg/mL (≈ 4.63 µM).

Take `CCn1cc(C(=O)O)c(=O)c2cnc(N3CCN(Cc4ccc(Cl)cc4)CC3)nc21` [XV, 2-(4'-p-Chlorobenzyl-piperazino)-5-oxo-8-ethyl-5,8-dihydro-pyrido(2,3-d)pyrimidine-6-carboxylic acid]: the MIC in the test with B. subtilis (setting [1]) came out at 1.6 µg/mL (≈ 3.74 µM); in the test with Pr. vulgaris (setting [5]), 12.5 µg/mL (≈ 29.2 µM); in the test on Pr. morganii (setting [1]), 6.2 µg/mL (≈ 14.5 µM); in the test with Streptococcus (setting [1]), 1.6 µg/mL (≈ 3.74 µM); in the test with Bord. bronchiseptica (setting [1]) it was 3.1 µg/mL (≈ 7.24 µM); in the test on Salm. typhi (setting [2]), 12.5 µg/mL (≈ 29.2 µM). Also, the MIC in the test with Klebs. pneumoniae (setting [1]) is 0.8 µg/mL (≈ 1.87 µM); in the test with Staphylococcus 209 P (setting [3]) it was 0.8 µg/mL (≈ 1.87 µM); with Pr. mirabilis (setting [5]) it was 12.5 µg/mL (≈ 29.2 µM); with B. pyocyaneus A22 (setting [4]) it was 50 µg/mL (≈ 117 µM); in the test on Esch. Coli 95 (setting [1]), 100 µg/mL (≈ 234 µM); in the test on Sh. sonnei (setting [1]), 1.6 µg/mL (≈ 3.74 µM).

On to `Cn1cc(C(=O)O)c(=O)c2cnc(N3CCN(CCO)CC3)nc21` [Example XI, 2-(4'-β-Hydroxyethyl-piperazino)-5-oxo-8-methyl-5,8-dihydropyrido(2,3-d)pyrimidine-6-carboxylic acid], for which the MIC turned out to be 12.5 µg/mL (≈ 37.5 µM) with B. subtilis (setting [6]); 100 µg/mL (≈ 300 µM) in the test on B. subtilis (setting [7]); 25 µg/mL (≈ 75 µM) with Pr. vulgaris (setting [8]); 50 µg/mL (≈ 150 µM) in the test with Pr. vulgaris (setting [7]); 3.1 µg/mL (≈ 9.3 µM) with Pr. morganii (setting [8]); 25 µg/mL (≈ 75 µM) in the test on Pr. morganii (setting [7]). For the same molecule, the MIC with Streptococcus (setting [8]) is 25 µg/mL (≈ 75 µM); with Streptococcus (setting [7]), above 100 µg/mL; in the test on Bord. bronchiseptica (setting [6]), 12.5 µg/mL (≈ 37.5 µM); in the test on Bord. bronchiseptica (setting [7]), 100 µg/mL (≈ 300 µM); in the test with Salm. typhi (pH 6.8, read-out: minimum inhibitory concentration (M.I.C.)), 6.2 µg/mL (≈ 18.6 µM); in the test on Salm. typhi (pH 7.3, read-out: minimum inhibitory concentration (M.I.C.)), 50 µg/mL (≈ 150 µM). The MIC in the test on Klebs. pneumoniae (18 h, pH 7.3, read-out: minimum inhibitory concentration (M.I.C.)) is 12.5 µg/mL (≈ 37.5 µM); in the test on Klebs. pneumoniae (setting [8]), 3.1 µg/mL (≈ 9.3 µM); with Staphylococcus 209 P (Staphylococcus, N.A. (nutrient agar, pH 6.8), 37° C., 18 hours, Table I, read-out: minimum inhibitory concentration (M.I.C.)), 25 µg/mL (≈ 75 µM); with Staphylococcus 209 P (Staphylococcus, T.S.A. (trypticase soya medium, pH 7.3), 37° C., 18 hours, read-out: minimum inhibitory concentration (M.I.C.)), above 100 µg/mL; in the test with B. pyocyaneus TUR (N.A. (nutrient agar, pH 6.8), Table I) it was 100 µg/mL (≈ 300 µM); in the test with B. pyocyaneus TUR (T.S.A. (trypticase soya medium, pH 7.3), read-out: minimum inhibitory concentration (M.I.C.)), above 100 µg/mL. In addition, the MIC in the test on Pr. mirabilis (setting [8]) was 6.2 µg/mL (≈ 18.6 µM); in the test on Pr. mirabilis (setting [7]) it was 25 µg/mL (≈ 75 µM); in the test on B. pyocyaneus A22 (A22, N.A. (nutrient agar, pH 6.8), 37° C., 18 hours, Table I, read-out: minimum inhibitory concentration (M.I.C.)) it was 100 µg/mL (≈ 300 µM); in the test with B. pyocyaneus A22 (A22, T.S.A. (trypticase soya medium, pH 7.3), 37° C., 18 hours, read-out: minimum inhibitory concentration (M.I.C.)), above 100 µg/mL; with Esch. Coli 95 (setting [8]), 1.6 µg/mL (≈ 4.8 µM); with Esch. Coli 95 (setting [7]), 25 µg/mL (≈ 75 µM). Besides, the MIC in the test on Sh. sonnei (setting [8]) was 1.6 µg/mL (≈ 4.8 µM); in the test on Sh. sonnei (setting [7]), 12.5 µg/mL (≈ 37.5 µM).

Regarding `C=CCN1CCN(c2ncc3c(=O)c(C(=O)O)cn(CC)c3n2)CC1` [XIV, 2-(4'-Allyl-piperazino)-5-oxo-8-ethyl-5,8-dihydro-pyrido(2,3-d)pyrimidine-6-carboxylic acid], the MIC was determined as 3.1 µg/mL (≈ 9.03 µM) in the test on B. subtilis (setting [1]); 3.1 µg/mL (≈ 9.03 µM) with Pr. vulgaris (setting [1]); 1.6 µg/mL (≈ 4.66 µM) in the test on Pr. morganii (setting [1]); 1.6 µg/mL (≈ 4.66 µM) in the test on Streptococcus (setting [1]); 3.1 µg/mL (≈ 9.03 µM) in the test with Bord. bronchiseptica (setting [1]); 3.1 µg/mL (≈ 9.03 µM) in the test with Salm. typhi (setting [2]). Further, the MIC stood at 0.4 µg/mL (≈ 1.16 µM) in the test on Klebs. pneumoniae (setting [1]); 3.1 µg/mL (≈ 9.03 µM) in the test on Staphylococcus 209 P (setting [3]); 6.2 µg/mL (≈ 18.1 µM) in the test with Pr. mirabilis (setting [1]); 25 µg/mL (≈ 72.8 µM) with B. pyocyaneus A22 (setting [4]); 50 µg/mL (≈ 146 µM) in the test with Esch. Coli 95 (setting [1]); 0.8 µg/mL (≈ 2.33 µM) in the test with Sh. sonnei (setting [1]).
